Experimental data taken from ChEMBL document CHEMBL1201862, “PubChem BioAssay data set” (2004).
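Values below derive from 48-hour exposures of cells grown in 96-well plates, with endpoints linearly interpolated between the two concentrations bracketing the appropriate inhibition level. GI50 marks 50% less growth.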 The source made the active and inactive calls. Cut-off read from the data, not from the text of the source: active = GI50 up to about 1.1 µM and inactive = higher. Square brackets hold non-standard residues; d marks the D form. Peptide text beside a SMILES is read from it. * marks the point of attachment. X26 = COC1=CC(=O)N(C(=O)[C@@H](O*)C(C)C)[C@H]1Cc1ccccc1; Bn2Val = CC(C)[C@@H](C(=O)*)N(Cc1ccccc1)Cc1ccccc1; NMeV = CN[C@H](C(=O)O)C(C)C; dNMeA = CN[C@H](C)C(=O)O

Experiments:
Assay in all cases: NCI tumour cell line growth inhibition, 48 h
SK-OV-3 = test system: SK-OV-3
UACC-257 = test system: UACC-257
Hs-578T = test system: Hs-578T
COLO 205 = test system: COLO 205
MCF7 = test system: MCF7
HOP-92 = test system: HOP-92
SW-620 = test system: SW-620
NCI-H226 = test system: NCI-H226
PC-3 = test system: PC-3
NCI-H460 = test system: NCI-H460
DU-145 = test system: DU-145
SF-539 = test system: SF-539
TK-10 = test system: TK-10
RXF 393 = test system: RXF 393
M14 = test system: M14
SK-MEL-28 = test system: SK-MEL-28
T47D = test system: T47D
IGROV-1 = test system: IGROV-1
HT-29 = test system: HT-29
MDA-MB-231 = test system: MDA-MB-231
Malme-3M = test system: Malme-3M
OVCAR-5 = test system: OVCAR-5
SN12C = test system: SN12C
OVCAR-8 = test system: OVCAR-8
LOX IMVI = test system: LOX IMVI
786-0 = test system: 786-0
OVCAR-4 = test system: OVCAR-4
CCRF-CEM = test system: CCRF-CEM
SR = test system: SR
SK-MEL-5 = test system: SK-MEL-5
HCT-15 = test system: HCT-15
KM12 = test system: KM12
SF-295 = test system: SF-295
SNB-19 = test system: SNB-19
MDA-N = test system: MDA-N
OVCAR-3 = test system: OVCAR-3
SK-MEL-2 = test system: SK-MEL-2
CAKI-1 = test system: CAKI-1
UO-31 = test system: UO-31
EKVX = test system: EKVX
K562 = test system: K562
HCC 2998 = test system: HCC 2998
NCI-H522 = test system: NCI-H522
UACC-62 = test system: UACC-62
NCI/ADR-RES = test system: NCI/ADR-RES
A498 = test system: A498
MDA-MB-435 = test system: MDA-MB-435
SF-268 = test system: SF-268
HCT-116 = test system: HCT-116
HOP-62 = test system: HOP-62
A549 = test system: A549
ACHN = test system: ACHN
U-251 = test system: U-251
BT-549 = test system: BT-549
SNB-75 = test system: SNB-75
MOLT-4 = test system: MOLT-4
HL-60 = test system: HL-60
NCI-H23 = test system: NCI-H23

In the case of `COC1=CC(=O)N(C(=O)[C@@H](OC(=O)[C@@H](C)N(C)C(=O)[C@@H]2CCCN2C(=O)[C@H](C(C)C)N(C)C(=O)[C@@H](NC(=O)[C@H](C(C)C)N(Cc2ccccc2)Cc2ccccc2)C(C)C)C(C)C)[C@H]1Cc1ccccc1` (Bn2Val-V[NMeV]P[dNMeA]-X26), the GI50 (SK-OV-3) is reported as > 100 µM (inactive), the GI50 (UACC-257) is reported as > 26.1 µM (inactive) and the GI50 (Hs-578T) is reported as > 100 µM (inactive). The GI50 (COLO 205) was > 100 µM (inactive), the GI50 (MCF7) was 8.65 µM (inactive) and the GI50 (HOP-92) was > 49.3 µM (inactive). The GI50 (SW-620) was > 100 µM (inactive), the GI50 (NCI-H226) was > 26.3 µM (inactive) and the GI50 (PC-3) was 6.3 µM (inactive). For the same compound, the GI50 (NCI-H460) was > 100 µM (inactive), the GI50 (DU-145) was > 100 µM (inactive) and the GI50 (SF-539) was > 37.2 µM (inactive). For the same compound, the GI50 (TK-10) was > 100 µM (inactive), the GI50 (RXF 393) was > 26.2 µM (inactive) and the GI50 (M14) was 68.1 µM (inactive). The GI50 (SK-MEL-28) was > 100 µM (inactive), the GI50 (T47D) was > 100 µM (inactive) and the GI50 (IGROV-1) was > 100 µM (inactive). For the same compound, the GI50 (HT-29) was > 100 µM (inactive), the GI50 (MDA-MB-231) was 13.4 µM (inactive) and the GI50 (Malme-3M) was > 59.6 µM (inactive). For the same compound, the GI50 (OVCAR-5) was > 100 µM (inactive), the GI50 (SN12C) was > 100 µM (inactive) and the GI50 (OVCAR-8) was > 100 µM (inactive). For the same compound, the GI50 (LOX IMVI) was > 100 µM (inactive), the GI50 (786-0) was 98.2 µM (inactive) and the GI50 (OVCAR-4) was > 100 µM (inactive). The GI50 (CCRF-CEM) was > 100 µM (inactive), the GI50 (SR) was > 100 µM (inactive) and the GI50 (SK-MEL-5) was 23.9 µM (inactive). For the same compound, the GI50 (HCT-15) was over 100 µM, the GI50 (KM12) was > 31.3 µM (inactive) and the GI50 (SF-295) was > 71.3 µM (inactive). The GI50 (SNB-19) was > 90.2 µM (inactive), the GI50 (MDA-N) was > 100 µM (inactive) and the GI50 (OVCAR-3) was > 100 µM (inactive). For the same compound, the GI50 (SK-MEL-2) was > 50.7 µM (inactive), the GI50 (CAKI-1) was > 100 µM (inactive) and the GI50 (UO-31) was 6.44 µM (inactive). For the same compound, the GI50 (EKVX) was > 44.5 µM (inactive), the GI50 (K562) was 6.78 µM (inactive) and the GI50 (HCC 2998) was > 100 µM (inactive). The GI50 (NCI-H522) was > 100 µM (inactive), the GI50 (UACC-62) was > 60.7 µM (inactive) and the GI50 (NCI/ADR-RES) was > 100 µM (inactive). For the same compound, the GI50 (A498) was 38.2 µM (inactive), the GI50 (MDA-MB-435) was > 100 µM (inactive) and the GI50 (SF-268) was > 100 µM (inactive). The GI50 (HCT-116) was 4.32 µM (inactive), the GI50 (HOP-62) was > 57.3 µM (inactive) and the GI50 (A549) was > 100 µM (inactive). For the same compound, the GI50 (ACHN) was > 100 µM (inactive), the GI50 (U-251) was 11.4 µM (inactive) and the GI50 (BT-549) was > 100 µM (inactive).
For `O=c1c(Cc2c(O)oc3cc(O)ccc3c2=O)c(O)oc2cc(O)ccc12`, the GI50 (SK-OV-3) was > 100 µM (inactive), the GI50 (UACC-257) was > 100 µM (inactive) and the GI50 (Hs-578T) was 94.4 µM (inactive). For the same compound, the GI50 (COLO 205) was > 100 µM (inactive), the GI50 (MCF7) was > 100 µM (inactive) and the GI50 (HOP-92) was > 100 µM (inactive). The GI50 (SW-620) was > 100 µM (inactive), the GI50 (NCI-H226) was > 100 µM (inactive) and the GI50 (PC-3) was > 100 µM (inactive). The GI50 (NCI-H460) was > 100 µM (inactive), the GI50 (DU-145) was > 100 µM (inactive) and the GI50 (SF-539) was > 100 µM (inactive). For the same compound, the GI50 (TK-10) was > 100 µM (inactive), the GI50 (RXF 393) was > 100 µM (inactive) and the GI50 (SNB-75) was 53.5 µM (inactive). The GI50 (M14) was > 100 µM (inactive), the GI50 (MOLT-4) was > 100 µM (inactive) and the GI50 (SK-MEL-28) was > 100 µM (inactive). The GI50 (T47D) was > 100 µM (inactive), the GI50 (IGROV-1) was > 100 µM (inactive) and the GI50 (HT-29) was > 100 µM (inactive). For the same compound, the GI50 (MDA-MB-231) was > 100 µM (inactive), the GI50 (HL-60) was > 100 µM (inactive) and the GI50 (Malme-3M) was > 100 µM (inactive). For the same compound, the GI50 (OVCAR-5) was > 100 µM (inactive), the GI50 (SN12C) was > 100 µM (inactive) and the GI50 (OVCAR-8) was > 100 µM (inactive). For the same compound, the GI50 (LOX IMVI) was > 100 µM (inactive), the GI50 (OVCAR-4) was 56.8 µM (inactive) and the GI50 (CCRF-CEM) was 56 µM (inactive). The GI50 (SR) was > 100 µM (inactive), the GI50 (SK-MEL-5) was 41.8 µM (inactive) and the GI50 (HCT-15) was over 100 µM. For the same compound, the GI50 (SF-295) was > 100 µM (inactive), the GI50 (SNB-19) was > 100 µM (inactive) and the GI50 (MDA-N) was > 100 µM (inactive). The GI50 (NCI-H23) was > 100 µM (inactive), the GI50 (OVCAR-3) was > 100 µM (inactive) and the GI50 (SK-MEL-2) was > 100 µM (inactive). For the same compound, the GI50 (CAKI-1) was > 100 µM (inactive), the GI50 (UO-31) was 31.9 µM (inactive) and the GI50 (EKVX) was > 100 µM (inactive). For the same compound, the GI50 (K562) was 64.9 µM (inactive), the GI50 (HCC 2998) was > 100 µM (inactive) and the GI50 (UACC-62) was > 100 µM (inactive). The GI50 (NCI/ADR-RES) was > 100 µM (inactive), the GI50 (A498) was > 100 µM (inactive) and the GI50 (MDA-MB-435) was > 100 µM (inactive). The GI50 (SF-268) was > 100 µM (inactive), the GI50 (HCT-116) was > 100 µM (inactive) and the GI50 (HOP-62) was > 100 µM (inactive). For the same compound, the GI50 (A549) was > 100 µM (inactive), the GI50 (U-251) was > 100 µM (inactive) and the GI50 (BT-549) was > 100 µM (inactive).
